Test results as given in ChEMBL document CHEMBL4177650, “Synthesis and biological evolution of hydrazones derived from 4-(trifluoromethyl)benzohydrazide” (Bioorg Med Chem Lett, 2017).
Values after ≈ are worked out from the molar mass of the structure shown. Active and inactive are the calls of the source. No cut-off for these calls is given here.

Experiments:
[1] = system: Mycobacterium tuberculosis; assay: Antimycobacterial activity against Mycobacterium tuberculosis H37Rv 331/88 after 14 days by micromethod; type: functional; conditions: H37Rv 331/88, 336 h
[2] = system: Mycobacterium tuberculosis; assay: Antimycobacterial activity against Mycobacterium tuberculosis H37Rv 331/88 after 21 days by micromethod; type: functional; conditions: H37Rv 331/88, 504 h
Mycobacterium avium [3] = assay: Antimycobacterial activity against Mycobacterium avium 330/88 after 14 days by micromethod; type: functional; conditions: 330/88, 336 h
Mycobacterium avium [4] = assay: Antimycobacterial activity against Mycobacterium avium 330/88 after 21 days by micromethod; type: functional; conditions: 330/88, 504 h
Mycobacterium kansasii [5] = assay: Antimycobacterial activity against Mycobacterium kansasii 6509/80 after 7 days by micromethod; type: functional; conditions: 6509/80, 168 h
Mycobacterium kansasii [6] = assay: Antimycobacterial activity against Mycobacterium kansasii 6509/80 after 14 days by micromethod; type: functional; conditions: 6509/80, 336 h
Mycobacterium kansasii [7] = assay: Antimycobacterial activity against Mycobacterium kansasii 6509/80 after 21 days by micromethod; type: functional; conditions: 6509/80, 504 h
Mycobacterium kansasii [8] = assay: Antimycobacterial activity against Mycobacterium kansasii 6509/96 after 7 days by micromethod; type: functional; conditions: 6509/96, 168 h
Mycobacterium kansasii [9] = assay: Antimycobacterial activity against Mycobacterium kansasii 6509/96 after 14 days by micromethod; type: functional; conditions: 6509/96, 336 h
Mycobacterium kansasii [10] = assay: Antimycobacterial activity against Mycobacterium kansasii 6509/96 after 21 days by micromethod; type: functional; conditions: 6509/96, 504 h
Candida tropicalis [11] = assay: Antifungal activity against Candida tropicalis 156 after 24 hrs by microdilution broth method; type: functional; conditions: Candida tropicalis, 156, 24 h
Candida tropicalis [12] = assay: Antifungal activity against Candida tropicalis 156 after 48 hrs by microdilution broth method; type: functional; conditions: Candida tropicalis, 156, 48 h
Pichia kudriavzevii [13] = assay: Antifungal activity against Candida krusei E28 after 24 hrs by microdilution broth method; type: functional; conditions: E28, 24 h
Pichia kudriavzevii [14] = assay: Antifungal activity against Candida krusei E28 after 48 hrs by microdilution broth method; type: functional; conditions: E28, 48 h
Nakaseomyces glabratus [15] = assay: Antifungal activity against Candida glabrata 20/I after 24 hrs by microdilution broth method; type: functional
Nakaseomyces glabratus [16] = assay: Antifungal activity against Candida glabrata 20/I after 48 hrs by microdilution broth method; type: functional
[17] = system: Trichophyton mentagrophytes; assay: Antifungal activity against Trichophyton mentagrophytes 445 after 72 hrs by microdilution broth method; type: functional; conditions: Trichophyton mentagrophytes, 445, 72 h
[18] = system: Trichophyton mentagrophytes; assay: Antifungal activity against Trichophyton mentagrophytes 445 after 120 hrs by microdilution broth method; type: functional; conditions: Trichophyton mentagrophytes, 445, 120 h
Staphylococcus aureus [19] = assay: Antibacterial activity against gram-positive Staphylococcus aureus CCM 4516/08 after 24 hrs by microdilution broth method; type: functional; conditions: CCM 4516/08, 24 h
Staphylococcus aureus [20] = assay: Antibacterial activity against gram-positive Staphylococcus aureus CCM 4516/08 after 48 hrs by microdilution broth method; type: functional; conditions: CCM 4516/08, 48 h
Staphylococcus aureus [21] = assay: Antibacterial activity against gram-positive methicillin-resistant Staphylococcus aureus H 5996/08 after 24 hrs by microdilution broth method; type: functional; conditions: H 5996/08, 24 h
Staphylococcus aureus [22] = assay: Antibacterial activity against gram-positive methicillin-resistant Staphylococcus aureus H 5996/08 after 48 hrs by microdilution broth method; type: functional; conditions: H 5996/08, 48 h
[23] = system: Staphylococcus epidermidis; assay: Antibacterial activity against gram-positive Staphylococcus epidermidis H 6966/08 after 24 hrs by microdilution broth method; type: functional; conditions: H 6966/08, 24 h
[24] = system: Staphylococcus epidermidis; assay: Antibacterial activity against gram-positive Staphylococcus epidermidis H 6966/08 after 48 hrs by microdilution broth method; type: functional; conditions: H 6966/08, 48 h
Enterococcus faecalis [25] = assay: Antibacterial activity against gram-positive Enterococcus faecalis J 14365/08 after 24 hrs by microdilution broth method; type: functional; conditions: J 14365/08, 24 h
Enterococcus faecalis [26] = assay: Antibacterial activity against gram-positive Enterococcus faecalis J 14365/08 after 48 hrs by microdilution broth method; type: functional; conditions: J 14365/08, 48 h
Escherichia coli [27] = assay: Antibacterial activity against gram-negative Escherichia coli CCM 4517 after 24 hrs by microdilution broth method; type: functional; conditions: CCM 4517, 24 h
Escherichia coli [28] = assay: Antibacterial activity against gram-negative Escherichia coli CCM 4517 after 48 hrs by microdilution broth method; type: functional; conditions: CCM 4517, 48 h
Klebsiella pneumoniae [29] = assay: Antibacterial activity against gram-negative Klebsiella pneumoniae D 11750/08 after 24 to 48 hrs by microdilution broth method; type: functional, organism-based
Pseudomonas aeruginosa = assay: Antibacterial activity against gram-negative Pseudomonas aeruginosa CCM 1961 after 48 hrs by microdilution broth method; type: functional, organism-based
Klebsiella pneumoniae [30] = assay: Antibacterial activity against extended spectrum beta-lactamase-positive Klebsiella pneumoniae J 14368/08 after 24 to 48 hrs by microdilution broth method; type: functional, organism-based
Candida albicans = assay: Antifungal activity against Candida albicans ATCC 44859 after 24 to 48 hrs by microdilution broth method; type: functional, organism-based
Trichosporon asahii = assay: Antifungal activity against Trichosporon asahii 1188 after 24 to 48 hrs by microdilution broth method; type: functional, organism-based
Aspergillus fumigatus = assay: Antifungal activity against Aspergillus fumigatus 231 after 24 to 48 hrs by microdilution broth method; type: functional, organism-based
Lichtheimia corymbifera = assay: Antifungal activity against Absidia corymbifera 272 after 24 to 48 hrs by microdilution broth method; type: functional, organism-based

Compound	MIC [1] [µM]	MIC [2] [µM]	MIC (Mycobacterium avium [3]) [µM]	MIC (Mycobacterium avium [4]) [µM]	MIC (Mycobacterium kansasii [5]) [µM]	MIC (Mycobacterium kansasii [6]) [µM]	MIC (Mycobacterium kansasii [7]) [µM]	MIC (Mycobacterium kansasii [8]) [µM]	MIC (Mycobacterium kansasii [9]) [µM]	MIC (Mycobacterium kansasii [10]) [µM]	MIC (Candida tropicalis [11]) [µM]	MIC (Candida tropicalis [12]) [µM]	MIC (Pichia kudriavzevii [13]) [µM]	MIC (Pichia kudriavzevii [14]) [µM]	MIC (Nakaseomyces glabratus [15]) [µM]	MIC (Nakaseomyces glabratus [16]) [µM]	MIC [17] [µM]	MIC [18] [µM]	MIC (Staphylococcus aureus [19]) [µM]	MIC (Staphylococcus aureus [20]) [µM]	also measured
O=C(NN=C1CCCC1)c1ccc(C(F)(F)F)cc1	500 (≈ 135 µg/mL)	500 (≈ 135 µg/mL)	> 125	> 125	500 (≈ 135 µg/mL)	> 1000	> 1000	500 (≈ 135 µg/mL)	1000 (≈ 270 µg/mL)	1000 (≈ 270 µg/mL)	–	–	–	–	–	–	–	–	–	–	–
OC(Cn1cncn1)(Cn1cncn1)c1ccc(F)cc1F [FLUCONAZOLE]	–	–	–	–	–	–	–	–	–	–	> 500	> 500	125 (≈ 38.3 µg/mL)	250 (≈ 76.6 µg/mL)	31.2 (≈ 9.57 µg/mL)	500 (≈ 153 µg/mL)	7.81 (≈ 2.39 µg/mL)	125 (≈ 38.3 µg/mL)	–	–	–
CC(C)=NNC(=O)c1ccc(C(F)(F)F)cc1	> 125	> 125	> 125	> 125	125 (≈ 30.5 µg/mL)	> 125	> 125	> 125	> 125	> 125	> 500	> 500	> 500	> 500	> 500	> 500	> 500	> 500	> 500	> 500	MIC (Staphylococcus aureus [21]): > 500 µM; MIC (Staphylococcus aureus [22]): > 500 µM; MIC [23]: 500 µM (≈ 122 µg/mL); MIC [24]: > 500 µM; MIC (Enterococcus faecalis [25]): 250 µM (≈ 61.1 µg/mL); MIC (Enterococcus faecalis [26]): 500 µM (≈ 122 µg/mL); MIC (Escherichia coli [27]): > 500 µM; MIC (Escherichia coli [28]): > 500 µM; Activity (Klebsiella pneumoniae [29]): inactive; Activity (Pseudomonas aeruginosa): inactive; Activity (Klebsiella pneumoniae [30]): inactive; Activity (Candida albicans): inactive; Activity (Trichosporon asahii): inactive; Activity (Aspergillus fumigatus): inactive; Activity (Lichtheimia corymbifera): inactive
O=C(N/N=C/c1cccc(O)c1)c1ccc(C(F)(F)F)cc1	250 (≈ 77.1 µg/mL)	250 (≈ 77.1 µg/mL)	250 (≈ 77.1 µg/mL)	250 (≈ 77.1 µg/mL)	62.5 (≈ 19.3 µg/mL)	125 (≈ 38.5 µg/mL)	250 (≈ 77.1 µg/mL)	250 (≈ 77.1 µg/mL)	500 (≈ 154 µg/mL)	500 (≈ 154 µg/mL)	–	–	–	–	–	–	–	–	–	–	Activity (Klebsiella pneumoniae [29]): inactive; Activity (Pseudomonas aeruginosa): inactive; Activity (Klebsiella pneumoniae [30]): inactive; Activity (Candida albicans): inactive; Activity (Trichosporon asahii): inactive; Activity (Aspergillus fumigatus): inactive; Activity (Lichtheimia corymbifera): inactive
NNC(=O)c1ccc(C(F)(F)F)cc1	250 (≈ 51 µg/mL)	500 (≈ 102 µg/mL)	> 500	> 500	> 250	> 250	> 250	> 250	> 250	> 250	> 500	> 500	> 500	> 500	> 500	> 500	> 500	> 500	> 500	> 500	MIC (Staphylococcus aureus [21]): > 500 µM; MIC (Staphylococcus aureus [22]): > 500 µM; MIC [23]: > 500 µM; MIC [24]: > 500 µM; MIC (Enterococcus faecalis [25]): > 500 µM; MIC (Enterococcus faecalis [26]): > 500 µM; MIC (Escherichia coli [27]): > 500 µM; MIC (Escherichia coli [28]): > 500 µM
O=C(NN=C1CCCCC1)c1ccc(C(F)(F)F)cc1	250 (≈ 71.1 µg/mL)	500 (≈ 142 µg/mL)	> 125	> 125	500 (≈ 142 µg/mL)	> 1000	> 1000	500 (≈ 142 µg/mL)	1000 (≈ 284 µg/mL)	1000 (≈ 284 µg/mL)	–	–	–	–	–	–	–	–	–	–	–
